Assay results: a melting point compilation (Tetko et al.; mined from patent text by program, amines drawn as free bases though some values may be those of a salt)
Residues, ends and D or L forms follow the SMILES beside them. *: point of attachment. Boc = CC(C)(C)OC(=O)*

melting point	Structure (SMILES)
157 °C	CCOCc1nc2c(N)nc3cc(OCCCN4CCCC4=O)ccc3c2n1CCCCNS(C)(=O)=O
> 200 °C	CC(C)(C)OC(=O)NCC(=O)NC(Cc1ccc(O)cc1)C(=O)NC(CCCCN)C(=O)O (stereo not drawn) (Boc-Gly-Tyr-Lys-OH; configuration not given here)
173 to 175 °C	CCCCC(=N)NC(=O)Nc1ccccc1O
181 to 182 °C	O=C(Cc1ccccc1)c1cc(O)c(O)c([N+](=O)[O-])c1
153 to 155 °C	CC(C)(C)OC(=O)NC1CCCCCC=CC2CC2(C(=O)NS(=O)(=O)C2CC2)NC(=O)C2CC(OC(=O)c3ccc4c(c3)OCO4)CN2C1=O (stereo not given)
89 to 91 °C	CCCc1c(O)c(C(C)=O)cc(Cl)c1OCCOCCOc1c(C(C)=O)ccc(OCC(=O)O)c1CCC
200 °C	COc1cc(C(=O)c2ncc3ccc(NC(=O)OC(C)(C)C)cn23)ccc1[N+](=O)[O-]
134 to 135 °C	O=[N+]([O-])c1ccc(OCCCO)cc1CS(=O)(=O)c1cccc2ccccc12
160 to 162 °C	COC(=O)[C@H](CSSC[C@H](NC(=O)[C@@H]1CCC(=O)N1)C(=O)OC)NC(=O)[C@@H]1CCC(=O)N1
48 to 49 °C	CCc1cc(-c2ccc(F)cc2)c(O)cc1OCCCOc1cccc(Oc2ccccc2C(=O)O)c1CC(C)C
118 to 120 °C	CC(C)(C)C(C)(O)C(CCOc1ccccc1)n1cncn1 (stereo not given)
87 to 89 °C	CCNC(Cc1ccc(O)cc1)C(=O)OCC (stereo not given)

Second part, the compound before the results:

Structure (SMILES)	melting point
COc1cc(CN2CCN(c3ccc(C(=O)NC4CC4)cc3C)CC2)cc2c1OCC(=O)N2	220 to 228 °C
O=C(c1ccccc1)P1(=O)Oc2ccccc2-c2ccccc21 (stereo not given)	134 to 135 °C
CSCCNC(N)=Nc1ccccc1N1CCOCC1	115 to 116 °C
CC(=O)c1cc(Br)no1	65 to 66 °C
O=C(Cl)c1cccc(C(=O)Cl)c1[N+](=O)[O-]	129 to 132 °C
CC(=N)Nc1cccc(F)c1	175 to 177 °C
CC1Cc2c(c(S(N)(=O)=O)nn2C)C(=O)O1 (stereo not given)	142 to 144 °C
COc1cc2c(cc1OC)C1(CNC(=O)C1)CC2=O (stereo not given)	193 to 195 °C
COC(=O)c1cn2c(C)c(C)sc2n1	180 to 181 °C
O=c1oc(=O)n(Cc2ccc(F)cc2)c2ccc(F)cc12	107 °C
C=C1CCC(C2OC(=O)NC2=O)CC1 (stereo not given)	63 to 64 °C
CC(=NOc1ccc(Cl)cc1)c1ccc(C(F)(F)F)cc1NS(=O)(=O)C(F)(F)F	89 to 90 °C
CC(C)(C)c1ccc(CN=C2SCN(c3ccccc3)C(=O)N2CC(F)(F)F)cc1	90 to 91.5 °C
CCOC(=O)C(C#N)C1NC(=O)c2sccc2-n2cccc21 (stereo not given)	195 °C
CSc1nc(C)n(-c2ccc(N)cc2)n1	130 to 136 °C
N[C@@H]1C(=O)Nc2ccccc2-c2ccccc21	> 225 °C
Cc1cccc(C)c1N1CCCN(c2c(C)cccc2C)C1=N	68 to 71 °C
C[C@H]1CC[C@H]2C(C)(C)C(=NN3CCOCC3)CC[C@]23Oc2c(c(O)cc4c2CNC4=O)C[C@]13C	202 to 205 °C
Cc1cc(N2N=CCNC2=O)cc(Cl)c1C(=O)c1ccc(Cl)cc1	171 to 172 °C
Cc1ccc(-n2nc(N3CCN(C(N)=O)CC3)c3ccccc32)cc1	146 to 148 °C
COc1ccc(N(C)CC2CCOCC2)cc1N	97 to 99 °C
Cc1n[nH]c(=O)n1-c1ccc(OC(F)(F)C(F)F)cc1	204 to 205 °C
O=c1c2cnn(Cc3ccccc3)c2nc2n1CCS2	180 to 182 °C
CCOC(=O)c1csnc1-c1ccc(C(F)(F)F)cc1	63 to 64 °C
CCCOc1nc2ccc(Br)cc2c(=O)n1CCC	57 to 59 °C
CN1C(=O)N2CCOC2(c2ccccc2)c2cc(Cl)ccc21 (stereo not given)	124 to 125 °C
Cc1nccn1-c1nc(-c2ccc(Cl)cc2)c(CCC2=NCCO2)o1	119 to 120 °C
CN(CCCNc1ncc(Cc2ccccc2)c(=O)[nH]1)c1ccccn1	75 to 85 °C
